Assay results from article PMC7143535, “Synthesis, Pharmacological and Structural Characterization of Novel Conopressins from Conus miliaris” (Marine Drugs, 2020).
pEC50: −log10 of the molar value. Residues, ends and D or L forms follow the SMILES beside them.

Legend:
[1] = molecular target: zebrafish vasopressin2 receptor (ZF V2R); type: cell-based, zebrafish (Danio rerio); settings: for pEC50: read-out: Mean EC50 ZF V2R
[2] = molecular target: zebrafish vasopressin1-a2 receptor (ZF V1a2R); type: cell-based, zebrafish (Danio rerio)
[3] = molecular target: T1, human vasopressin-1b receptor (hV1bR) (Homo sapiens, UniProt P47901); assay: cell-based; type: cell-based
T1 construct: host or cells: COS-1
T1 sequence (P47901 1-424): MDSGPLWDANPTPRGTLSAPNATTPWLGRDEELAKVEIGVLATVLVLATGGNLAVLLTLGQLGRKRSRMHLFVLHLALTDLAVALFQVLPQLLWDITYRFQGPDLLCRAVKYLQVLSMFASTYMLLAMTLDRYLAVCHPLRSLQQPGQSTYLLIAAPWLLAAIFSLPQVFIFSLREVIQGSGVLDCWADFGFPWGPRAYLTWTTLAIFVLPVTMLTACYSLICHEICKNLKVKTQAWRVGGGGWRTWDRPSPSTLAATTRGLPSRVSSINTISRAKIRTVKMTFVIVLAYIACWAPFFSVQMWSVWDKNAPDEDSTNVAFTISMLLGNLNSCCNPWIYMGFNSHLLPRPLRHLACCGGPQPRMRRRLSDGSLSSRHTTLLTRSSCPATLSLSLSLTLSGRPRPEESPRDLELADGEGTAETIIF

[4] = molecular target: T2, human vasopressin2 receptor (hV2R) (Homo sapiens, UniProt P30518); assay: cell-based
T2 construct: host or cells: COS-1
T2 sequence (P30518 whole entry): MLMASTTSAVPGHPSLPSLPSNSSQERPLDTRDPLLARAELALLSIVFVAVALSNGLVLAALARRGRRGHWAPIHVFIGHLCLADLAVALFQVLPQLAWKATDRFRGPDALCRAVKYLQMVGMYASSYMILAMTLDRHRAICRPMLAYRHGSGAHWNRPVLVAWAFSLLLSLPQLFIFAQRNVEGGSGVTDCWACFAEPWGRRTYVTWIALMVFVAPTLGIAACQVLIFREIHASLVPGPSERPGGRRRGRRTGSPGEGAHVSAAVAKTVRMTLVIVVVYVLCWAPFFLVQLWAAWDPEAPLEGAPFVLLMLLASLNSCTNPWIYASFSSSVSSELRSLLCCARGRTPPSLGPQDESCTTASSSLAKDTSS

[5] = molecular target: T3, human vasopressin-1a receptor (hV1aR) (Homo sapiens, UniProt P37288); assay: cell-based
T3 construct: host or cells: COS-1
T3 sequence (P37288 whole entry): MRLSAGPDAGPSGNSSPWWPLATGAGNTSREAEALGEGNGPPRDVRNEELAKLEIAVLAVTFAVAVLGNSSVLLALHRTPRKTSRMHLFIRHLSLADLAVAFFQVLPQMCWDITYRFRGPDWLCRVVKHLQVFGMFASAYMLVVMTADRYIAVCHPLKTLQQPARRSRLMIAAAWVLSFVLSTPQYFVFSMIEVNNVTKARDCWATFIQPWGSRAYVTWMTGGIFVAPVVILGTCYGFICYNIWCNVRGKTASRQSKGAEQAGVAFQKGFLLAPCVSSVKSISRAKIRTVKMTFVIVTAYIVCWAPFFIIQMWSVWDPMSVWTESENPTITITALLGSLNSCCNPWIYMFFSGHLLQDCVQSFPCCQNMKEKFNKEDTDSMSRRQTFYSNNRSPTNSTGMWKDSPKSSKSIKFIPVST

[6] = molecular target: T4, human oxytocin receptor (hOTR) (Homo sapiens, UniProt P30559); assay: cell-based; type: cell-based
T4 construct: host or cells: COS-1
T4 sequence (P30559 1-389): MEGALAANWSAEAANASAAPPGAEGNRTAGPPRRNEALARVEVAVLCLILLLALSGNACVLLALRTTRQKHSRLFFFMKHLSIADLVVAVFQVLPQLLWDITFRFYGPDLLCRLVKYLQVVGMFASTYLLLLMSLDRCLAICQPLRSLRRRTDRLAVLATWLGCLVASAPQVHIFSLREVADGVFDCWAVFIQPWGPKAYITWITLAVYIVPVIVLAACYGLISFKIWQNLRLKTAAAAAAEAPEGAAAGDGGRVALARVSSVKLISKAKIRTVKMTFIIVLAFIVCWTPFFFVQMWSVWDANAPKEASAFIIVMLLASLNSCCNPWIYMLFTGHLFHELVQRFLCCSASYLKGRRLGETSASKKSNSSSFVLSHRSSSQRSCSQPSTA

[7] = molecular target: T5, zebrafish oxytocin/isotocin receptor (ZF oxy/isoR) (Danio rerio, UniProt E4W699); assay: cell-based; type: cell-based
T5 construct: host or cells: COS-1
T5 sequence (E4W699 1-388): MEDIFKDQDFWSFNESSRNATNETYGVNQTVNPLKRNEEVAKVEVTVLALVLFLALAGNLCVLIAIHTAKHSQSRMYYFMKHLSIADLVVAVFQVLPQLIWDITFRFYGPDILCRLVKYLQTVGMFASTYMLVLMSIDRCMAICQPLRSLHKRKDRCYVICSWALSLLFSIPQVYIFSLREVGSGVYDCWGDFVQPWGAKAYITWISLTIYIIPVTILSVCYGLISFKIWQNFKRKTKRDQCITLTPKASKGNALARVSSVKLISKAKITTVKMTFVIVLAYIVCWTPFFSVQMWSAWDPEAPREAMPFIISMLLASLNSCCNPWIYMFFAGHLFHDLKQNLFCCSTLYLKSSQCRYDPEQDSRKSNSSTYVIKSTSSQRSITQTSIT

[8] = molecular target: zebrafish vasopressin1-a1 receptor (ZF V1a1R); type: cell-based, zebrafish (Danio rerio)

| Compound | pEC50 [1] | pEC50 [2] | pEC50 [3] | response of control at hV1b (weak and partial agonist) [3] | pEC50 [4] | pEC50 [5] | pEC50 [6] | pEC50 [7] | Selectivity ZF V2R [1] | pEC50 [8] | Selectivity ZF V1a1R [8] | Selectivity ZF V1a2R [2] | response of control at ZF V1a2R (partial agonist) [2] | Selectivity hV1bR [3] | Selectivity hV2R [4] | Selectivity hV1aR [5] | response of control at hOTR (partial agonist) [6] | Selectivity ZF oxy [7] | response of control at ZF oxy/isoR (partial agonist) [7] |
| --- | --- | --- | --- | --- | --- | --- | --- | --- | --- | --- | --- | --- | --- | --- | --- | --- | --- | --- | --- |
| NC(=O)C[C@@H]1NC(=O)CNC(=O)[C@@H]2CCCN2C(=O)[C@H](Cc2ccccc2)NC(=O)[C@@H](N)CSSC[C@@H](C(=O)N2CCC[C@H]2C(=O)N[C@@H](CC(=O)O)C(=O)N[C@@H](CO)C(N)=O)NC1=O [Con-M1am, conopressin-M1] (HELM PEPTIDE1{C.F.P.G.N.C.P.D.S.[am]}$PEPTIDE1,PEPTIDE1,1:R3-6:R3$$$V2.0) | < 4.00 | < 4.00 | 4.42 | 26% | < 4.00 | < 4.00 | < 4.00 | < 4.00 |  |  |  |  |  |  |  |  |  |  |  |
| CC[C@H](C)[C@@H]1NC(=O)[C@H](Cc2ccccc2)NC(=O)[C@@H](N)CSSC[C@@H](C(=O)N2CCC[C@H]2C(=O)N[C@@H](CCCCN)C(=O)NCC(N)=O)NC(=O)[C@H](CC(N)=O)NC(=O)[C@H](CCCNC(=N)N)NC1=O [Con-G, conopressin-G] (HELM PEPTIDE1{C.F.I.R.N.C.P.K.G.[am]}$PEPTIDE1,PEPTIDE1,1:R3-6:R3$$$V2.0) |  |  | 7.28 |  | 6.52 | 6.91 |  |  | ZF V1a1R (x42.9) > ZF V1a2R (x10.3) > hV1bR (x8.8) > ZF V2R (x7.5) > hV1aR (x3.7) > hV2R (x1.5) > ZF oxy (x1.3) > hOTR | 8.00 | ZF V1a1R (x42.9) > ZF V1a2R (x10.3) > hV1bR (x8.8) > ZF V2R (x7.5) > hV1aR (x3.7) > hV2R (x1.5) > ZF oxy (x1.3) > hOTR | ZF V1a1R (x42.9) > ZF V1a2R (x10.3) > hV1bR (x8.8) > ZF V2R (x7.5) > hV1aR (x3.7) > hV2R (x1.5) > ZF oxy (x1.3) > hOTR | 69% | ZF V1a1R (x42.9) > ZF V1a2R (x10.3) > hV1bR (x8.8) > ZF V2R (x7.5) > hV1aR (x3.7) > hV2R (x1.5) > ZF oxy (x1.3) > hOTR | ZF V1a1R (x42.9) > ZF V1a2R (x10.3) > hV1bR (x8.8) > ZF V2R (x7.5) > hV1aR (x3.7) > hV2R (x1.5) > ZF oxy (x1.3) > hOTR | ZF V1a1R (x42.9) > ZF V1a2R (x10.3) > hV1bR (x8.8) > ZF V2R (x7.5) > hV1aR (x3.7) > hV2R (x1.5) > ZF oxy (x1.3) > hOTR | 28% | ZF V1a1R (x42.9) > ZF V1a2R (x10.3) > hV1bR (x8.8) > ZF V2R (x7.5) > hV1aR (x3.7) > hV2R (x1.5) > ZF oxy (x1.3) > hOTR | 62% |
| CC(C)C[C@@H]1NC(=O)[C@H](Cc2ccccc2)NC(=O)[C@@H](N)CSSC[C@@H](C(=O)N2CCC[C@H]2C(=O)N[C@@H](CC(=O)O)C(=O)N[C@@H](CO)C(N)=O)NC(=O)[C@H](CC(N)=O)NC(=O)CNC1=O [Con-M2am, conopressin-M2] (HELM PEPTIDE1{C.F.L.G.N.C.P.D.S.[am]}$PEPTIDE1,PEPTIDE1,1:R3-6:R3$$$V2.0) | 5.76 | < 4.00 | < 4.00 |  | < 4.00 | < 4.00 | < 4.00 | < 4.00 |  | < 4.00 |  |  |  |  |  |  |  |  |  |
